Measurements: the CheMixHub viscosity set
± gives the uncertainty stated by the source.

Assay: xn = mol fraction of the nth substance listed

CCCCCCCCCCCCCC[P+](CCCCCC)(CCCCCC)CCCCCC.c1c[n-]nn1 + CCCCn1cc[n+](C)c1.O=S(=O)([N-]S(=O)(=O)C(F)(F)F)C(F)(F)F
viscosity [mPa·s], 100 kPa
Settings	293.15 K	298.15 K	303.15 K	308.15 K	313.15 K	318.15 K	323.15 K
x1 = 0.1	98 ± 12	77 ± 9	61 ± 7	49 ± 6	–	–	–
x1 = 0.2	164 ± 20	123 ± 15	96 ± 12	76 ± 9	62 ± 8	50 ± 6	–
x1 = 0.278	242 ± 30	178 ± 22	135 ± 17	107 ± 13	84 ± 10	68 ± 8	56 ± 7
x1 = 0.612	602 ± 78	428 ± 54	311 ± 39	231 ± 29	174 ± 21	135 ± 16	107 ± 13
x1 = 0.699	663 ± 86	468 ± 60	339 ± 43	252 ± 31	190 ± 23	147 ± 18	115 ± 14
x1 = 0.8	723 ± 94	507 ± 65	368 ± 46	273 ± 34	205 ± 25	158 ± 19	125 ± 15
x1 = 0.9	685 ± 89	486 ± 62	353 ± 44	263 ± 33	199 ± 25	154 ± 19	123 ± 15

CCC(=O)O + C[N+](C)(C)CCO.[Cl-]
101 kPa, x2 = 0.333
Settings	viscosity [mPa·s]
293.15 K	70.98 ± 1.5
298.15 K	55.91 ± 1.2
303.15 K	44.79 ± 0.94
308.15 K	36.45 ± 0.76
313.15 K	30.06 ± 0.63
318.15 K	25.09 ± 0.52
323.15 K	21.19 ± 0.44

CCCCCCCCCCCCCC[P+](CCCCCC)(CCCCCC)CCCCCC.c1c[n-]nn1 + CCCCCCn1cc[n+](C)c1.O=S(=O)([N-]S(=O)(=O)C(F)(F)F)C(F)(F)F
viscosity [mPa·s], 100 kPa
Settings	293.15 K	298.15 K	303.15 K	308.15 K	313.15 K	318.15 K	323.15 K
x1 = 0.151	159 ± 20	122 ± 15	96 ± 12	77 ± 9	62 ± 7	51 ± 6	–
x1 = 0.302	268 ± 33	200 ± 25	152 ± 19	119 ± 14	94 ± 11	76 ± 9	62 ± 8
x1 = 0.42	402 ± 51	294 ± 37	219 ± 27	168 ± 21	131 ± 16	104 ± 13	84 ± 10
x1 = 0.55	498 ± 64	358 ± 45	262 ± 33	197 ± 24	151 ± 18	118 ± 14	94 ± 11
x1 = 0.652	614 ± 80	437 ± 56	317 ± 40	236 ± 29	180 ± 22	139 ± 17	109 ± 13
x1 = 0.7	725 ± 95	511 ± 66	369 ± 47	274 ± 34	206 ± 25	159 ± 19	125 ± 15
x1 = 0.865	744 ± 97	527 ± 68	382 ± 48	284 ± 35	215 ± 27	166 ± 20	131 ± 16

CCC(N)C(=O)[O-].[Na+] (centres undefined) + O
viscosity [mPa·s], 101.3 kPa
Settings	x1 = 0.009	x1 = 0.018	x1 = 0.029	x1 = 0.039	x1 = 0.05	x1 = 0.062
303.15 K	1.034 ± 0.066	1.36 ± 0.083	1.815 ± 0.11	2.492 ± 0.17	3.501 ± 0.23	4.954 ± 0.26
308.15 K	0.924 ± 0.059	1.217 ± 0.072	1.595 ± 0.096	2.167 ± 0.14	3.005 ± 0.19	4.223 ± 0.23
313.15 K	0.836 ± 0.052	1.093 ± 0.063	1.417 ± 0.083	1.91 ± 0.12	2.608 ± 0.16	3.646 ± 0.2
318.15 K	0.76 ± 0.046	0.98 ± 0.055	1.27 ± 0.073	1.695 ± 0.1	2.295 ± 0.14	3.173 ± 0.17
323.15 K	0.697 ± 0.042	0.9 ± 0.049	1.143 ± 0.063	1.516 ± 0.091	2.029 ± 0.12	2.777 ± 0.14

Nc1cccc(Cl)c1 + Clc1ccccc1
Settings	viscosity [mPa·s]
308.15 K, 100 kPa, x1 = 0.3821	2.145 ± 0.1

O=[N+]([O-])[O-].[Li+] + N
293.15 K, 101 kPa
Settings	viscosity [mPa·s]
x1 = 0.026	0.168 ± 0.004
x1 = 0.059	0.228 ± 0.006
x1 = 0.096	0.32 ± 0.008
x1 = 0.174	0.602 ± 0.015

CCC(=O)O + c1ccncc1
298.15 K, 101 kPa
Settings	viscosity [mPa·s]
x1 = 0.0999	1 ± 0.026
x1 = 0.1959	1.135 ± 0.027
x1 = 0.2826	1.311 ± 0.029
x1 = 0.3927	1.587 ± 0.031
x1 = 0.5016	1.943 ± 0.033
x1 = 0.6401	2.388 ± 0.035
x1 = 0.7118	2.48 ± 0.033
x1 = 0.7972	2.353 ± 0.029
x1 = 0.8994	1.755 ± 0.02

O=C(O)c1ccccc1O + O
viscosity [mPa·s], 100 kPa
Settings	x1 = 7.22e-05	x1 = 0.000108	x1 = 0.000143	x1 = 0.00018	x1 = 0.0002158	x1 = 0.0002516
293.15 K	1.008 ± 0.06	1.011 ± 0.06	1.013 ± 0.06	1.015 ± 0.06	1.017 ± 0.06	1.019 ± 0.06
298.15 K	0.896 ± 0.06	0.899 ± 0.06	0.901 ± 0.06	0.902 ± 0.06	0.904 ± 0.06	0.906 ± 0.06
303.15 K	0.803 ± 0.06	0.806 ± 0.06	0.807 ± 0.06	0.809 ± 0.06	0.81 ± 0.06	0.812 ± 0.06
308.15 K	0.725 ± 0.06	0.727 ± 0.06	0.729 ± 0.06	0.73 ± 0.06	0.732 ± 0.06	0.733 ± 0.06
313.15 K	0.659 ± 0.06	0.661 ± 0.06	0.662 ± 0.06	0.664 ± 0.06	0.665 ± 0.06	0.666 ± 0.06
